Measured values taken from patent US20180073018A1, “COMPOSITIONS AND METHODS FOR SPECIFIC REACTIVATION OF HIV LATENT RESERVOIR” (priority 2015, published 2018).

Legend:
HIV-1 LTR promoter [1] = experiment: dCas9-VPH/msgRNA (or SAHA) reactivation of latent LTR-eLuc reporter in TZM-bI cells; assay type: cell-based
Method: Cells were plated in 96-well plate and the indicated MS2-gRNAs were cotransfected by Lipofectamine 3000 (FIG. 3A) or coinfected by lentiviruses (FIG. 3B, MOI=50) with pMSCV-LTR-dCas9-VP64-BFP plus pLV-MS2-p65-HSF1-GFP. Two days later, OneGlo luminescence assay was performed. The SIV MS2-gRNA-D was used as negative control. […] The gRNA-J has no effect due to 2 nucleotides mismatch to the LTR sequence from TZM-bI cells.
FIG. 8A, FIG. 8B, FIG. 8C, and FIG. 8D, depict the results of experiments of screening of MS2-mediated sgRNAs (msgRNAs) targeting the HIV-1 long terminal repeat (LTR) in the dCas9-synergistic activation mediator (SAM) system. FIG. 8A is a schematic illustration of SAM-VPH complex derived from dCas9-VP64 (V) and MS2-p65-HSF1 (PH) with msgRNAs. FIG. 8B is a graph showing similar activation of transfected EcoHIV-eLuc reporter by inducible (TRE) or constitutive (LTR) dCas9-VP64 expression in HEK293T cells. FIG. 8C is a graph showing similar reactivation of latent HIV-LTR-eLuc reporter in TZM-bI cells after either transient plasmid transfection by Lipofectamine 3000 or stable infection by lentivirus. […] The gRNA-J has no effect due to 2 nucleotides mismatch to the LTR sequence from TZM-bI cells. […]
FIG. 9A and FIG. 9B: TZM-bI cells were infected with dCas9-VPH and indicated msgRNA lentiviruses at 1 or 10 MOI and luciferase activity was measured at 2-21 days post-infection (dpi). […]
(§1) FIG. 12A, FIG. 12B, FIG. 12C: The dCas9-VPH stable TZM-bI cells were treated with SAHA or infected with indicated msgRNAs lentivirus for 2-4 d before luminescence reporter assay (FIG. 12A) and CELLTITER-GLO® luminescent cell viability assay (FIG. 12B). […]
Experiments were conducted to compare reactivation of HIV-LTR luciferase reporter in TZM-BI cells induced by gRNA/dCas9-VP64/MS2-p65-HSF1/delivered by either transient plasmid transfection (FIG. 3A) or stable lentivirus infection (FIG. 3B). […] Two days later, OneGlo luminescence assay was performed. […]

HIV-1 LTR promoter [2] = experiment: HIV-1 EGFP reporter reactivation in latent CHME5 microglial cells; assay type: cell-based; conditions: dCas9-VPH stable CHME5, 500 nM, 4 d
Text: Cells were infected with pMSCV-LTR-dCas9-VP64-puromycin and Lenti-MS2-p65-HSF1-hygromysin, selected for 10 days. The population cells were infected with Lenti-MS2-gRNAs-Zeosin and the fluorescent micrographs were taken at 1 day after infection (FIG. 5B). Cells were continuously cultured for 7 days, and selected with triple antibiotics (puromycin-hygromycin-Zeocin) for 3 days before flow cytometry (FIG. 5C).
FIG. 9A and FIG. 9B: TZM-bI cells were infected with dCas9-VPH and indicated msgRNA lentiviruses at 1 or 10 MOI and luciferase activity was measured at 2-21 days post-infection (dpi). FIG. 9C, FIG. 9D: indicated HIV-1 EGFP reporter T cell lines were infected with dCas9-VPH and indicated msgRNAs lentiviruses at 10 MOI and flow cytometric analysis for EGFP percentage (FIG. 9C) and individual intensity (FIG. 9D) was performed at 1 dpi. […]
as §1
Cells were trypsinized (for CHME5) or collected (for suspension T cell lines), washed with PBS and fixed in 2% paraformaldehyde for 10 minutes at room temperature. Then, cells were washed twice with PBS and analyzed using a Guava EasyCyte Mini flow cytometer (Guava Technologies). […]

O=C(CCCCCCC(=O)Nc1ccccc1)NO [SAHA, suberoylanilide hydroxamic acid]
activation of LTR-eLuc reporter (HIV-1 LTR promoter [1]; TZM-bI, 500 nM): did not activate | reactivation of LTR-eLuc reporter (HIV-1 LTR promoter [1]; TZM-bI, 5,000 nM): 4 fold | HIV-1 provirus reactivation (EGFP) (HIV-1 LTR promoter [2]): marginal increase
